Values belong to the compound of their own block, whether it stands above or below them.
Experiments:
PDE IV = experiment: Inhibition of PDE IV activity; assay type: biochemical
conscious guinea-pigs = experiment: Effect on dyspnoea and migration of proinflammatory cells into the airway lumen after allergic reaction of conscious guinea-pigs; assay type: in vivo, guinea-pig; conditions: 30 μmol/kg p.o.
Excerpt: 2. Effect of dyspnoea and migration of proinflammatory (immunocompetent) cells from the blood vessels into the airway lumen after allergic reaction of conscious guinea-pigs
Immunocompetent blood cells (leucocytes) appear in the airway lumens under the influence of allergic, inflammatory reactions. This pathological migration can support itself, i.e. lead to chronic changes, and plays an important part as a pathological mechanism of chronic airway obstruction (of asthma) but also of allergic rhinitis and/or conjunctivitis. The inhibition of the migration by pharmaceuticals is an important therapeutic principle and is a measure of antiallergic or antiinflammatory actions.
The experimental animal methodology employed for the measurement of the acute effect of an allergic reaction on respiration and cell migration itself essentially follows the descriptions of P. A. Hutson et al. (Am. Rev. Respir. Dis., 137, 548, 1988) and J. P. Tarayre et al. (J. Parmacol. Meth., 23, 13, 1990) and also R. Beume et al. (Atemw. Lungenkrkh., 11, 324, 1985).
A defined guinea-pig collective is sensitized intraperitoneally to ovalbumin (20 μg+20 mg of Al(OH)3). 14 days later, the animals are tested:
0 h provocation of the allergic reaction, thoracographic latency time measurement until occurrence of dyspnoea, non-occurrence=protective action.
+24 h anaesthesia and bronchoalveolar lavage: Determination of the total cell number, counting of the differential cell picture in the lavage, determination of the protein content in the cell-free supernatant of the lavage.
The controlled used in each case was 1 random sample of sensitized animals: Placebo treatment+sham provocation or placebo treatment+provocation.
The compound of Example 1 (=compound 1), 30 μmol/kg p.o., acts on the parameters of this relation as follows: […]

[1] = bronchoalveolar lavage +24 h after provocation
[2] = cell-free supernatant of lavage +24 h after provocation

- -log IC50 (PDE IV): 8.64
SMILES: COc1cc(C(=O)Nc2c(Cl)cncc2Cl)ccc1OC(F)F [Compound 1, N-(3,5-Dichloropyrid-4-yl)-4-difluoromethoxy-3-methoxybenzamide]
- Passage of cells and protein after provocation (conscious guinea-pigs; base values = placebo + sham provocation): inhibits these passages to base values
- Eosinophilic granulocytes, median (conscious guinea-pigs; [1]): 1.2 × 10^6 /10 ml
- Eosinophilic granulocytes, median: bracketed value (relative to placebo + sham provocation = 1) (conscious guinea-pigs; [1]): 1.5
- Eosinophilic granulocytes, min./max. (conscious guinea-pigs; [1]): 0.6-2.5 × 10^6 /10 ml
- Macrophages, median (conscious guinea-pigs; [1]): 1.2 × 10^6 /10 ml
- Macrophages, median: bracketed value (relative to placebo + sham provocation = 1) (conscious guinea-pigs; [1]): 0.8
- Macrophages, min./max. (conscious guinea-pigs; [1]): 0.9-2.3 × 10^6 /10 ml
- Neutrophilic granulocytes, median (conscious guinea-pigs; [1]): 0.0 × 10^6 /10 ml
- Neutrophilic granulocytes, median: bracketed value (relative to placebo + sham provocation = 1) (conscious guinea-pigs; [1]): 0
- Neutrophilic granulocytes, min./max. (conscious guinea-pigs; [1]): 0.0-0.08 × 10^6 /10 ml
- Total leucocytes, median (conscious guinea-pigs; [1]): 2.5 × 10^6 /10 ml
- Total leucocytes, median: bracketed value (relative to placebo + sham provocation = 1) (conscious guinea-pigs; [1]): 1.1
- Total leucocytes, min./max. (conscious guinea-pigs; [1]): 1.5-4.2 × 10^6 /10 ml
- Protein content, median (conscious guinea-pigs; [2]): 4.1 mg/10 ml
- Protein content, median: bracketed value (relative to placebo + sham provocation = 1) (conscious guinea-pigs; [2]): 1.1
- Protein content, min./max. (conscious guinea-pigs; [2]): 2.6-11.0 mg/10 ml
- N, of which protected (conscious guinea-pigs; ovalbumin provocation, N = 14, non-occurrence of dyspnoea = protective action): 8 animals

- -log IC50 (PDE IV): 8.42
SMILES: O=C(Nc1c(Cl)cncc1Cl)c1ccc(OC(F)F)c(OC(F)F)c1 [Compound 2, N-(3,5-Dichloropyrid-4-yl)-3,4-bis-difluoromethoxybenzamide]

- -log IC50 (PDE IV): 8.74
SMILES: O=C(Nc1c(Cl)cncc1Cl)c1ccc(OC(F)F)c(OCC2CCC2)c1 [Compound 3, N-(3,5-Dichloropyrid-4-yl)-3-cyclobutylmethoxy-4-difluoromethoxybenzamide]

- -log IC50 (PDE IV): 9.18
SMILES: O=C(Nc1c(Cl)cncc1Cl)c1ccc(OC(F)F)c(OC2CCCC2)c1 [Compound 4, N-(3,5-Dichloropyrid-4-yl)-3-cyclopentyloxy-4-difluoromethoxybenzamide]
